Reference: US11555041B2, “Bridged bicyclic inhibitors of menin-MLL and methods of use” (Kura Oncology, Inc., priority 2016, dated 2023)

target: T1, menin-MLL interaction (Menin MLL 4-43) (Homo sapiens, UniProt O00255); assay: Fluorescence polarization (FP) competition assay; format: binding; settings: fluorescence polarization assay; read-out: Menin MLL 4-43 IC50
T1 sequence (O00255 1-610): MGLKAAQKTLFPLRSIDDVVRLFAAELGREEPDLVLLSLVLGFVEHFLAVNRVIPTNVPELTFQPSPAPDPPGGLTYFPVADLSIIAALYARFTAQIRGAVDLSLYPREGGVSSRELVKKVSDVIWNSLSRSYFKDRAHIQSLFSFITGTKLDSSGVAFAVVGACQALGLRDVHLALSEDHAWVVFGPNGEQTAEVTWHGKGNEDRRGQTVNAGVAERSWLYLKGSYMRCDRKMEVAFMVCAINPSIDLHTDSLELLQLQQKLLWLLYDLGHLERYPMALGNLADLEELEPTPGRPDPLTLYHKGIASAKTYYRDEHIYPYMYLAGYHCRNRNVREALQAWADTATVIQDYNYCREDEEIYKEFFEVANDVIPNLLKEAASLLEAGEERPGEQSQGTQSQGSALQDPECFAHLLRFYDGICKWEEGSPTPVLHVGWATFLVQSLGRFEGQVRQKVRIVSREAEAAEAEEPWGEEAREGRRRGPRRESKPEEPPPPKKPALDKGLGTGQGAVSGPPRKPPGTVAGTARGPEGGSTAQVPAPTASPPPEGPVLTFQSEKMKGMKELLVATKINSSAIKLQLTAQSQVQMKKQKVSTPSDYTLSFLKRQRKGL

`CNC(CO)C(=O)NC12CC(Cn3c(C#N)cc4c(C)c(CN5CCC(Nc6ncnc7sc(CC(F)(F)F)cc67)CC5)ccc43)(C1)C2` (stereo not drawn) [Compound 76] and `CC[C@@H](NC)C(=O)NC12CC(Cn3c(C#N)cc4c(C)c(CN5CCC(Nc6ncnc7sc(CC(F)(F)F)cc67)CC5)ccc43)(C1)C2` [Compound 70] cannot be ordered by IC50: < 50 nM for the first, < 50 nM for the second.

`CNC12CC(Cn3c(C#N)cc4c(C)c(CN5CCC(Nc6ncnc7sc(CC(F)(F)F)cc67)CC5)ccc43)(C1)C2` [Compound 10] and `CC(=O)NC12CC(Cn3c(C#N)cc4c(C)c(CN5CCC(Nc6ncnc7sc(CC(F)(F)F)cc67)CC5)ccc43)(C1)C2` [Compound 2] fall in the same range of IC50: 50 to 250 nM for the first, 50 to 250 nM for the second.

`CNc1nc(NC2CCN(Cc3ccc4c(cc(C#N)n4CC45CC(NC(=O)Cc6ccccc6N)(C4)C5)c3C)CC2)c2cc(CC(F)(F)F)sc2n1` [Compound 80] and `CCC(=O)NC12CC(Cn3c(C#N)cc4c(C)c(CN5CCC(Nc6nc(NC)nc7sc(CC(F)(F)F)cc67)CC5)ccc43)(C1)C2` [Compound 86] cannot be ordered by IC50: < 50 nM for the first, < 50 nM for the second.

Compared with `Cc1c(CN2CCC(Nc3ncnc4sc(CC(F)(F)F)cc34)CC2)ccc2c1cc(C#N)n2CC12CC(NC(=O)CN3CCOCC3)(C1)C2` [Compound 56], `Cc1c(CN2CCC(Nc3ncnc4sc(CC(F)(F)F)cc34)CC2)ccc2c1cc(C#N)n2CC12CC(NC(=O)CO)(C1)C2` [Compound 16] is higher in IC50: < 50 nM for the first, 50 to 250 nM for the second.

First: COCC(=O)NC12CC(Cn3c(C#N)cc4c(C)c(CN5CCC(Nc6ncnc7sc(CC(F)(F)F)cc67)CC5)ccc43)(C1)C2 [Compound 43]
Second: Cc1c(CN2CCC(Nc3ncnc4sc(CC(F)(F)F)cc34)CC2)ccc2c1cc(C#N)n2CC12CC(NC(=O)CN)(C1)C2 (single isomer, unassigned) [Compound 61]
The IC50 of the first is lower: 50 to 250 nM for the first, 250 to 1000 nM for the second.

First: CC(=O)N[C@H]1C[C@@H](Cn2c(C#N)cc3c(C)c(CN4CCC(Nc5ncnc6sc(CC(F)(F)F)cc56)CC4)ccc32)C1 [Compound 31]
Second: CC(=O)N[C@H]1C[C@H](Cn2c(C#N)cc3c(C)c(CN4CCC(Nc5ncnc6sc(CC(F)(F)F)cc56)CC4)ccc32)C1 [Compound 32]
The IC50 of the first is higher: 250 to 1000 nM for the first, 50 to 250 nM for the second.

`CCCCC(NC)C(=O)NC12CC(Cn3c(C#N)cc4c(C)c(CN5CCC(Nc6ncnc7sc(CC(F)(F)F)cc67)CC5)ccc43)(C1)C2` (stereo not drawn) [Compound 73] and `CCCCC(N)C(=O)NC12CC(Cn3c(C#N)cc4c(C)c(CN5CCC(Nc6ncnc7sc(CC(F)(F)F)cc67)CC5)ccc43)(C1)C2` (stereo not drawn) [Compound 72] fall in the same range of IC50: 50 to 250 nM for the first, 50 to 250 nM for the second.

`C=CC(=O)N[C@H]1C[C@@H](Cn2c(C#N)cc3c(C)c(CN4CCC(Nc5ncnc6sc(CC(F)(F)F)cc56)CC4)ccc32)C1` [Compound 29] and `C=CC(=O)N[C@H]1C[C@H](Cn2c(C#N)cc3c(C)c(CN4CCC(Nc5ncnc6sc(CC(F)(F)F)cc56)CC4)ccc32)C1` [Compound 30] fall in the same range of IC50: 50 to 250 nM for the first, 50 to 250 nM for the second.

Compared with `Cc1c(CN2CCC(Nc3ncnc4sc(CC(F)(F)F)cc34)CC2)ccc2c1cc(C#N)n2CC12CC(C(=O)O)(C1)C2` [Compound 20], `CNC(=O)C12CC(Cn3c(C#N)cc4c(C)c(CN5CCC(Nc6ncnc7sc(CC(F)(F)F)cc67)CC5)ccc43)(C1)C2` [Compound 18] is lower in IC50: > 1000 nM for the first, 50 to 250 nM for the second.

First: Cc1c(CN2CCC(Nc3ncnc4sc(CC(F)(F)F)cc34)CC2)ccc2c1cc(C#N)n2CC12CC(NC(=O)CNC3CC3)(C1)C2 [Compound 42]
Second: CNCC(=O)NC12CC(Cn3c(C#N)cc4c(C)c(CN5CCC(Nc6ncnc7sc(CC(F)(F)F)cc67)CC5)ccc43)(C1)C2 [Compound 48]
The IC50 of the first is higher: 50 to 250 nM for the first, < 50 nM for the second. The second is the more potent here.

`CNc1nc(NC2CCN(Cc3ccc4c(cc(C#N)n4CC45CC(NC=O)(C4)C5)c3C)CC2)c2cc(CC(F)(F)F)sc2n1` [Compound 85] and `Cc1nc(NC2CCN(Cc3ccc4c(cc(C#N)n4CC45CC(NC=O)(C4)C5)c3C)CC2)c2cc(CC(F)(F)F)sc2n1` [Compound 83] cannot be ordered by IC50: < 50 nM for the first, < 50 nM for the second.

`Cc1c(CN2CCC(Nc3ncnc4sc(CC(F)(F)F)cc34)CC2)ccc2c1cc(C#N)n2CC12CC(NC(=O)C(F)(F)F)(C1)C2` [Compound 6] and `Cc1c(CN2CCC(Nc3ncnc4sc(CC(F)(F)F)cc34)CC2)ccc2c1cc(C#N)n2CC12CC(NC(=O)C(N)C(F)(F)F)(C1)C2` (stereo not drawn) [Compound 69] fall in the same range of IC50: 250 to 1000 nM for the first, 250 to 1000 nM for the second.

`Cc1c(CN2CCC(Nc3ncnc4sc(CC(F)(F)F)cc34)CC2)ccc2c1cc(C#N)n2CC12CC(NC(=O)C3(N)CC3)(C1)C2` [Compound 60] and `Cc1c(CN2CCC(Nc3ncnc4sc(CC(F)(F)F)cc34)CC2)ccc2c1cc(C#N)n2CC12CC(NC(=O)C3(O)CC3)(C1)C2` [Compound 68] fall in the same range of IC50: 50 to 250 nM for the first, 50 to 250 nM for the second.

First: Cc1c(CN2CCC(Nc3ncnc4sc(CC(F)(F)F)cc34)CC2)ccc2c1cc(C#N)n2CC12CC(NC(=O)c3cccc(=O)[nH]3)(C1)C2 [Compound 35]
Second: Cc1c(CN2CCC(Nc3ncnc4sc(CC(F)(F)F)cc34)CC2)ccc2c1cc(C#N)n2CC12CC(NC(=O)c3ccc[nH]3)(C1)C2 [Compound 34]
The IC50 of the first is lower: < 50 nM for the first, 50 to 250 nM for the second. The first is the more potent here.

`Cc1c(CN2CCC(Nc3ncnc4sc(CC(F)(F)F)cc34)CC2)ccc2c1cc(C#N)n2CC12CC(NC(=O)CN(C)C)(C1)C2` [Compound 40] and `Cc1c(CN2CCC(Nc3ncnc4sc(CC(F)(F)F)cc34)CC2)ccc2c1cc(C#N)n2CC12CC(NC(=O)CCN)(C1)C2` [Compound 39] cannot be ordered by IC50: < 50 nM for the first, < 50 nM for the second.

First: Cc1c(CN2CCC(Nc3ncnc4sc(CC(F)(F)F)cc34)CC2)ccc2c1cc(C#N)n2CC12CC(NC(=O)C(N)CC(F)(F)F)(C1)C2 (stereo not drawn) [Compound 74]
Second: Cc1c(CN2CCC(Nc3ncnc4sc(CC(F)(F)F)cc34)CC2)ccc2c1cc(C#N)n2CC12CC(NC(=O)C(C)C)(C1)C2 [Compound 8]
The IC50 of the first is higher: 250 to 1000 nM for the first, 50 to 250 nM for the second.

Compared with `Cc1c(CN2CCC(Nc3ncnc4sc(CC(F)(F)F)cc34)CC2)ccc2c1cc(C#N)n2CC12CC(N)(C1)C2` [Compound 13], `Cc1c(CN2CCC(Nc3ncnc4sc(CC(F)(F)F)cc34)CC2)ccc2c1cc(C#N)n2CCC12CC(N)(C1)C2` [Compound 11] is higher in IC50: 50 to 250 nM for the first, 250 to 1000 nM for the second. The first is the more potent here.

Compared with `CCC(=O)NC12CC(CCn3c(C#N)cc4c(C)c(CN5CCC(Nc6ncnc7sc(CC(F)(F)F)cc67)CC5)ccc43)(C1)C2` [Compound 12], `C=CC(=O)NC12CC(CCn3c(C#N)cc4c(C)c(CN5CCC(Nc6ncnc7sc(CC(F)(F)F)cc67)CC5)ccc43)(C1)C2` [Compound 14] is lower in IC50: > 1000 nM for the first, 250 to 1000 nM for the second.

Compared with `CC(=O)NC12CC(Cn3c(C#N)cc4c(C)c(CN5CCC(Nc6nc(C)nc7sc(CC(F)(F)F)cc67)CC5)ccc43)(C1)C2` [Compound 84], `CCC(=O)NC12CC(Cn3c(C#N)cc4c(C)c(CN5CCC(Nc6nc(C)nc7sc(CC(F)(F)F)cc67)CC5)ccc43)(C1)C2` [Compound 55] is higher in IC50: < 50 nM for the first, 50 to 250 nM for the second.

First: Cc1c(CN2CCC(Nc3ncnc4sc(CC(F)(F)F)cc34)CC2)ccc2c1cc(C#N)n2CC12CC(NC(=O)C3CCCN3)(C1)C2 (stereo not drawn) [Compound 41]
Second: Cc1c(CN2CCC(Nc3ncnc4sc(CC(F)(F)F)cc34)CC2)ccc2c1cc(C#N)n2CC12CC(NC(=O)C3CC3)(C1)C2 [Compound 9]
The IC50 of the first is lower: < 50 nM for the first, 50 to 250 nM for the second.

Compared with `Cc1c(CN2CCC(Nc3ncnc4sc(CC(F)(F)F)cc34)CC2)ccc2c1cc(C#N)n2CC12CC(NC(=O)C(C)O)(C1)C2` (stereo not drawn) [Compound 66], `Cc1c(CN2CCC(Nc3ncnc4sc(CC(F)(F)F)cc34)CC2)ccc2c1cc(C#N)n2CC12CC(NC(=O)C(N)C(C)C)(C1)C2` (stereo not drawn) [Compound 62] is lower in IC50: 50 to 250 nM for the first, < 50 nM for the second. The second is the more potent here.

First: Cc1c(CN2CCC(Nc3ncnc4sc(CC(F)(F)F)cc34)CC2)ccc2c1cc(C#N)n2CC12CC(NC(=O)C(N)c3ccccc3)(C1)C2 (stereo not drawn) [Compound 65]
Second: Cc1c(CN2CCC(Nc3ncnc4sc(CC(F)(F)F)cc34)CC2)ccc2c1cc(C#N)n2CC12CC(NC(=O)Cc3ccccc3)(C1)C2 [Compound 77]
The IC50 of the first is lower: < 50 nM for the first, 250 to 1000 nM for the second. The first is the more potent here.

`Cc1c(CN2CCC(Nc3ncnc4sc(CC(F)(F)F)cc34)CC2)ccc2c1cc(C#N)n2CC12CC(C(=O)NCCN)(C1)C2` [Compound 37] and `Cc1c(CN2CCC(Nc3ncnc4sc(CC(F)(F)F)cc34)CC2)ccc2c1cc(C#N)n2CC12CC(NC=O)(C1)C2` [Compound 15] cannot be ordered by IC50: < 50 nM for the first, < 50 nM for the second.

Compared with `Cc1c(CN2CCC(Nc3ncnc4sc(CC(F)(F)F)cc34)CC2)ccc2c1cc(C#N)n2CC12CC(NC(=O)C(C)(C)N)(C1)C2` [Compound 59], `Cc1c(CN2CCC(Nc3ncnc4sc(CC(F)(F)F)cc34)CC2)ccc2c1cc(C#N)n2CC12CC(NC(=O)C(C)(C)O)(C1)C2` [Compound 63] is higher in IC50: < 50 nM for the first, 50 to 250 nM for the second.

`C=CC(=O)NC12CC(Cn3c(C#N)cc4c(C)c(CN5CCC(Nc6ncnc7sc(CC(F)(F)F)cc67)CC5)ccc43)(C1)C2` [Compound 1] and `Cc1c(CN2CCC(Nc3ncnc4sc(CC(F)(F)F)cc34)CC2)ccc2c1cc(C#N)n2CC12CC(NC(=O)CNS(C)(=O)=O)(C1)C2` [Compound 36] fall in the same range of IC50: 50 to 250 nM for the first, 50 to 250 nM for the second.

Compared with `CCC(=O)NC12CC(Cn3c(C#N)cc4c(C)c(CN5CCC(Nc6nc(N)nc7sc(CC(F)(F)F)cc67)CC5)ccc43)(C1)C2` [Compound 54], `Cc1c(CN2CCC(Nc3ncnc4sc(CC(F)(F)F)cc34)CC2)ccc2c1cc(C#N)n2CC12CC(NC(=O)Cc3cccc(N)c3)(C1)C2` [Compound 78] is higher in IC50: < 50 nM for the first, 250 to 1000 nM for the second.

Compared with `Cc1c(CN2CCC(Nc3ncnc4sc(CC(F)(F)F)cc34)CC2)ccc2c1cc(C#N)n2CC12CC(N(C)C)(C1)C2` [Compound 5], `CCC(=O)NC12CC(Cn3c(C#N)cc4cc(CN5CCC(Nc6ncnc7sc(CC(F)(F)F)cc67)CC5)c(O)cc43)(C1)C2` [Compound 75] is lower in IC50: 250 to 1000 nM for the first, 50 to 250 nM for the second.
